PubChem BioAssay AID2060889 (Molecular Pharmacology Branch, DTP, NCI, 2025)

Test system: LG0567-F671-PDC complex spheroids viability
Test: Anticancer human tumor LG0567-F671-PDC patient-derived lung adenocarcinoma cell line growth inhibition [RAS]
Settings: for IC50: curve of first compound; for viability, T/C: stronger effect = lower value
Excerpt: RAS pathway inhibitors in Combinations in Complex Spheroids
A high-throughput screen of multi-cell type tumor spheroids was designed to identify active combinations of RAS pathway inhibitors and targeted small molecules. Complex spheroids include a stromal component modeled by human endothelial cells (HUVEC) and fibroblasts modeled by human mesenchymal stem cells (MSCs). The concentration ranges selected for each drug and investigational agent were based upon clinically achievable concentrations if the clinical Cmax of the agent was known.
Compounds. The drugs and investigational agents: abemaciclib (NSC768073), cobimetinib (NSC768068), divarasib (GDC6063, NSC841802), docetaxel (NSC628503), GDC-1971 (RLY-1971, NSC841576), gemcitabine (NSC613327), inavolisib (NSC800729), ipatasertib (NSC767898), KB-0742 (NSC834161), MRTX-1133 (NSC836407), osimertinib (NSC779217), RMC-4630 (NSC839698), RMC-6236 (NSC851965), RMC-6291 (NSC852671), Ro-3306 (NSC812927), sapanisertib (NSC764658), SN-38 (NSC673596), staurosporine (NSC755774), SY5609 (NSC837396), and tovorafenib (DAY101, NSC766906), were obtained from the National Cancer Institute (NCI) Developmental Therapeutics Program Chemical Repository. The FDA-approved anticancer drug set is available from the NCI Developmental Therapeutics Program. […] The stock solutions were prepared in dimethyl sulfoxide (DMSO, Sigma-Aldrich, St. Louis, MO, cat. D2650) at 800-fold the tested concentration and stored at -70 degrees C prior to their use. All drugs and investigational agents were tested over a range starting from a high concentration at or near the clinical Cmax and decreasing in half-log increments. If the clinical Cmax for an agent had not been determined, the highest concentration tested was 10 microM.
Cell Culture. All cells were maintained in an incubator at 37 degrees C and 5% CO2 with 95% humidity. The PDC lines were cultured according to standard operating procedures established by the NCI PDMR. All PDCs were thawed and cultured in Matrigel-coated flasks prepared with a working solution of 1X Ham's F-12 nutrient mix, without supplementation (Invitrogen, Waltham, MA, cat. 11765054), 100 U/mL penicillin-streptomycin (Invitrogen, cat. 15140122), and 2.5% Matrigel (Corning Inc., Corning, NY, cat. 354248) for the first three passages. The 362531-283-R-J2-PDC and 782815-120-R-J1-PDC lines were cultured in 6C/Colon 1B media, which includes advanced DMEM/F-12 (Thermo Fisher Scientific, cat. 12634028), 10 mM HEPES (Thermo Fisher Scientific, cat. 15630080), 1X GlutaMAX supplement (Thermo Fisher Scientific, cat. 35050061), 0.1 mg/mL primocin (InvivoGen, San Diego, CA, cat. ant-pm-2), 10% defined fetal bovine serum, heat inactivated (HyClone Laboratories Inc., Logan, UT, cat. SH30070.03HI), 50% L-WRN conditioned media (ATCC, cat. CRL-3276), 1.25 mM N-Acetyl-L-cysteine (Sigma-Aldrich, cat. A9165), 10 mM nicotinamide (Sigma-Aldrich, cat. N0636), 1X B-27 supplement (Thermo Fisher Scientific, cat. 17504044), 1X N-2 supplement (Thermo Fisher Scientific, cat. 17502048), 50 ng/mL human EGF (Thermo Fisher Scientific, cat. PHG0311), and 10 microM Y-27632 dihydrochloride (Tocris Bioscience, cat. 1254). The K12877-001-R-J1-PDC line was cultured in 6I media, which includes all 6C/Colon 1B media plus 10 ng/mL human FGF-10 (PeproTech, cat. 100-26), 1 ng/mL human FGF-2 (PeproTech, cat. 100-18B), 1 µM prostaglandin E2 (Tocris Bioscience, cat. 2296), […] hydrocortisone (Sigma-Aldrich, cat. H4001), and […] bovine insulin (Sigma-Aldrich, cat. I6634). The K86415-001-R-J1-PDC line was cultured in 6D media, which includes all 6C/Colon 1B media components minus the L-WRN conditioned media. The 485176-168-R4-J1-PDC was cultured in PANC media, which includes all 6C/Colon 1B media plus 100 ng/mL human FGF-10 (PeproTech, cat. 100-26), 500 nM SB-431542 (Selleckchem, cat. S1067), and 10 nM gastrin (Tocris Bioscience, cat. 3006). […]
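Also: spheroids exposed to compound for seven days before readout.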
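For IC50 in this document: luminescence signal used as a proxy for viable cells.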

SMILES: CC1(C)CCC(Nc2ncc(C(F)(F)F)c(-c3c[nH]c4c(P(C)(C)=O)c(C#N)ccc34)n2)CN1 (configuration not stated) + C=CC(=O)N1CCN(c2nc(OCC3CCCN3C)nc3c(F)c(-c4nc(N)cc(C)c4C(F)(F)F)c(Cl)cc23)C(C)C1
- IC50 (second compound 0.00316 µM): < 0.949 nM
- IC50 (second compound 0.01 µM): < 0.949 nM
- IC50 (second compound 0.0316 µM): < 0.949 nM
- IC50 (second compound 0.1 µM): < 0.949 nM
- IC50 (second compound 0.316 µM): < 0.949 nM
- IC50 (second compound 1 µM): < 0.949 nM
- viability, T/C (second compound 0.00316 µM, first compound 0.000949 µM): 12.2%
- viability, T/C (second compound 0.00316 µM, first compound 0.003 µM): 11.3%
- viability, T/C (second compound 0.00316 µM, first compound 0.00949 µM): 11.2%
- viability, T/C (second compound 0.00316 µM, first compound 0.03 µM): 13.6%
- viability, T/C (second compound 0.00316 µM, first compound 0.0949 µM): 12.2%
- viability, T/C (second compound 0.00316 µM, first compound 0.3 µM): 11.8%
- viability, T/C (second compound 0.01 µM, first compound 0.000949 µM): 11.9%
- viability, T/C (second compound 0.01 µM, first compound 0.003 µM): 10.2%
- viability, T/C (second compound 0.01 µM, first compound 0.00949 µM): 10.1%
- viability, T/C (second compound 0.01 µM, first compound 0.03 µM): 10.1%
- viability, T/C (second compound 0.01 µM, first compound 0.0949 µM): 13%
- viability, T/C (second compound 0.01 µM, first compound 0.3 µM): 12.4%
- viability, T/C (second compound 0.0316 µM, first compound 0.000949 µM): 9.75%
- viability, T/C (second compound 0.0316 µM, first compound 0.003 µM): 9.55%
- viability, T/C (second compound 0.0316 µM, first compound 0.00949 µM): 10.2%
- viability, T/C (second compound 0.0316 µM, first compound 0.03 µM): 11.2%
- viability, T/C (second compound 0.0316 µM, first compound 0.0949 µM): 10.7%
- viability, T/C (second compound 0.0316 µM, first compound 0.3 µM): 10.8%
- viability, T/C (second compound 0.1 µM, first compound 0.000949 µM): 10.9%
- viability, T/C (second compound 0.1 µM, first compound 0.003 µM): 9.77%
- viability, T/C (second compound 0.1 µM, first compound 0.00949 µM): 10.7%
- viability, T/C (second compound 0.1 µM, first compound 0.03 µM): 10.9%
- viability, T/C (second compound 0.1 µM, first compound 0.0949 µM): 11.5%
- viability, T/C (second compound 0.1 µM, first compound 0.3 µM): 10.2%
- viability, T/C (second compound 0.316 µM, first compound 0.000949 µM): 10%
- viability, T/C (second compound 0.316 µM, first compound 0.003 µM): 9.73%
- viability, T/C (second compound 0.316 µM, first compound 0.00949 µM): 10.6%
- viability, T/C (second compound 0.316 µM, first compound 0.03 µM): 10.2%
- viability, T/C (second compound 0.316 µM, first compound 0.0949 µM): 12.2%
- viability, T/C (second compound 0.316 µM, first compound 0.3 µM): 11.4%
- viability, T/C (second compound 1 µM, first compound 0.000949 µM): 10.2%
- viability, T/C (second compound 1 µM, first compound 0.003 µM): 11%
- viability, T/C (second compound 1 µM, first compound 0.00949 µM): 10.4%
- viability, T/C (second compound 1 µM, first compound 0.03 µM): 11.1%
- viability, T/C (second compound 1 µM, first compound 0.0949 µM): 12.4%
- viability, T/C (second compound 1 µM, first compound 0.3 µM): 12.3%
